# Assay results: US9084815B2, “Method for treating damage induced by an anti-tumor agent, treating mucositis and treating tumor” (SUCAMPO AG, priority 2009, dated 2015)
# Columns and labels:
# [1] = test system: 5-FU induced toxicity (ileum tissue damage); experiment: Effects of Compound A against 5-FU induced toxicity: histopathological tissue damage score of ileum; type: in vivo; conditions: for Total score (tissue damage): 5-FU 50 mg/kg i.p. Day 1 to 4, ileum H&E on Day 7
# Protocol: After 1 week of acclimatization period, the experiment started (Day 0). Compound A ((−)-7-{(2R,4aR,5R,7aR)-2-[(3S)-1,1-difluoro-3-methylpentyl]-2-hydroxy-6-oxooctahydrocyclopenta[b]pyran-5-yl}heptanoic acid) (3, 10, 30 μg/kg) or vehicle was administered orally once daily for 5 days from Day 0 to 4 (Schedule 1). In other dosing schedule group, Compound A (30 μg/kg) was administered orally once daily from Day 4 to Day 6 (Schedule 2). 5-FU (50 mg/kg) was administered intraperitoneally once daily for 4 days from Day 1 to 4. On Day 1, 2, 3, and 4,5-FU was administered immediately after administration of Compound A or vehicle. During the experiment period (Day 0-7), animals were weighed every day. On Day 7, the animals were anesthetized by isofluran. Ileum was excised and fixed in 10% formalin. Paraffin-embedded sections were prepared and stained with H&E for histopathological evaluation of tissue damage. The tissue damage was graded according to the following criteria: • 0. No change, • 1: slight, • 2: mild, • 3: moderate, • 4: severe The effect of each compound was evaluated using total score of tissue damage.
# [2] = test system: stomatitis aggravated by 5-FU (cheek pouch mucosa); experiment: Effects of Compound A on stomatitis: 5-FU plus cheek pouch scratching, hamster; type: in vivo, Golden Syrian hamsters
# Protocol: Male Golden Syrian hamsters (5 weeks old) were used. After 1 week acclimatization period, the hamsters were administered intraperitoneally with 60 mg/kg 5-fluorouracil (5-FU) (Day 1). 5-FU administration was repeated again on Day 2. On Day 4, the cheek pouch mucosa of the hamsters is mechanically irritated under anesthesia by superficial scratching with the tip of an 18-gauge needle to produce transient erythema. On Day 8 and 10, the same scratching procedure was conducted and 5-FU administration was done. The Compound A at the doses of 24 μg/site or vehicle was topically applied to the cheek pouches from Day 1 to Day 14. During the treatment, the cheek pouch mucosa was macroscopically observed and the buccal lesion was scored according to the following criteria (stomatitis score): • 0: Normal mucosa • 1: Erythema was observed • 2: Severe erythema was observed • 3: Severe erythema and formation of ulcers in one or more places were observed. Cumulative size of the ulcers involves ˜25% of the pouch mucosa. Pseudomembrane formation was evident. • 4: Severe erythema and formation of ulcers were observed. Cumulative size of the ulcers involved about half of the pouch mucosa. Loss of mucosal pliability. • 5: diffuse, extensive ulceration. Loss of mucosal pliability. […] Severity of stomatitis was evaluated using the mean of scores per treatment group.
structure (smiles),measurement,setting,value
"CC[C@H](C)CC(F)(F)[C@@]1(O)CC[C@H]2[C@@H](CC(=O)[C@@H]2CCCCCCC(=O)O)O1 [Compound A, (−)-7-{(2R,4aR,5R,7aR)-2-[(3S)-1,1-difluoro-3-methylpentyl]-2-hydroxy-6-oxooctahydrocyclopenta[b]pyran-5-yl}heptanoic acid]",Total score (tissue damage),"[1]; Compound A 3 μg/kg orally once daily, Schedule 1 (Day 0 to 4)",10.0
same,Total score (tissue damage),"[1]; Compound A 10 μg/kg orally once daily, Schedule 1 (Day 0 to 4)",5.0
same,Total score (tissue damage),"[1]; Compound A 30 μg/kg orally once daily, Schedule 1 (Day 0 to 4)",5.7
same,Total score (tissue damage),"[1]; Compound A 30 μg/kg orally once daily, Schedule 2 (Day 4 to Day 6)",4.3
same,Effect on total score of tissue damage (in words),[1]; at 10 or 30 μg/kg regardless of the dosing schedule,decreased total scores
same,Effect on stomatitis compared to vehicle control group (in words),"[2]; 24 μg/site topical, stomatitis aggravated by 5-FU treatment",improved stomatitis
same,stomatitis score on Day 14 (Mean ± SE),"[2]; 24 μg/site topically to cheek pouches Day 1 to Day 14, 5-FU treatment yes, score 0-5, p < 0.05 vs. vehicle control",0.25 ± 0.25
